We go through three molecules from patent publication US20240374561A1, “METHOD FOR PREVENTING NITRATION OF TYROSINE RESIDUES IN HEPATOCYTE GROWTH FACTOR USING TRISULFIDE COMPOUND” (KYUSHU UNIVERSITY, NATIONAL UNIVERSITY CORPORATION, priority 2021, published 2024).

Series [1] addresses T1, recombinant mouse HGF (Mus musculus, UniProt Q08048).
T1 construct: purchased R&D Systems 2207-HG-025/CF
The series is described as follows: Inhibition of nitration of recombinant HGF protein by peroxynitrite (ONOO-), Western blot with anti-nitrotyrosine antibody. Type of series: biochemical. The note with it: for inhibit nitration of tyrosine residues in HGF: summary statement. On the procedure:
GSSSG dihydrate produced by the method described in Patent Literature 1 was added to and mixed with a purified preparation of recombinant mouse HGF (2207-HG-025/CF, manufactured by R&D Systems, carrier free) dissolved in PBS such that the molar ratio of HGF:GSSSG was 1:10, 1:50, or 1:400 to prepare samples. A sample was also prepared in which GSSSG dihydrate was not added and the molar ratio of HGF:GSSSG was 1:0. Peroxynitrite (ONOO^−) was immediately added to each sample such that the molar ratio of HGF:ONOO^− was 1:500. The samples were held at pH 7.2 to 7.4 and 25 to 37° C. for 30 minutes (nitrating treatment) to give nitrated samples.
The obtained nitrated samples were subjected to Western blotting in accordance with a conventional method. The nitrated samples were treated with a solution containing SDS and β-mercaptoethanol to give samples for reduced SDS-PAGE. A 10% polyacrylamide gel was used for electrophoresis. The material of the transfer membrane used was nitrocellulose. HRP-labeled anti-nitrotyrosine monoclonal antibody (catalog number: sc-32757 HRP, manufactured by Santa Cruz Biotechnology) and HRP-labeled anti-HGF monoclonal antibody (catalog number: sc-374422 HRP, manufactured by Santa Cruz Biotechnology) were used. The immune response was recorded on an imaging device using ECL reagents. Nitrated bovine serum albumin (BSAnitro) was used as a positive control sample. PL (Protein Ladder) and MW-STD (Molecular Weight-Standard) in FIG. 1 are molecular weight markers. Further, material A in FIG. 1 means GSSSG.
Nitration treatment and Western blotting were performed in the same manner as in Example 1 except that lipoic acid trisulfide was used instead of GSSSG and the molar ratio of HGF:ONOO was set to 1:4000. In FIG. 1, material B means lipoic acid trisulfide.
(Immunoblotting shows a protein as a band on a membrane.)

The nature of series [2]: Solubility in water at 20° C. The note with it: free lipoic acid trisulfide. Type of series: physicochemical.

T1 sequence (Q08048 33-728): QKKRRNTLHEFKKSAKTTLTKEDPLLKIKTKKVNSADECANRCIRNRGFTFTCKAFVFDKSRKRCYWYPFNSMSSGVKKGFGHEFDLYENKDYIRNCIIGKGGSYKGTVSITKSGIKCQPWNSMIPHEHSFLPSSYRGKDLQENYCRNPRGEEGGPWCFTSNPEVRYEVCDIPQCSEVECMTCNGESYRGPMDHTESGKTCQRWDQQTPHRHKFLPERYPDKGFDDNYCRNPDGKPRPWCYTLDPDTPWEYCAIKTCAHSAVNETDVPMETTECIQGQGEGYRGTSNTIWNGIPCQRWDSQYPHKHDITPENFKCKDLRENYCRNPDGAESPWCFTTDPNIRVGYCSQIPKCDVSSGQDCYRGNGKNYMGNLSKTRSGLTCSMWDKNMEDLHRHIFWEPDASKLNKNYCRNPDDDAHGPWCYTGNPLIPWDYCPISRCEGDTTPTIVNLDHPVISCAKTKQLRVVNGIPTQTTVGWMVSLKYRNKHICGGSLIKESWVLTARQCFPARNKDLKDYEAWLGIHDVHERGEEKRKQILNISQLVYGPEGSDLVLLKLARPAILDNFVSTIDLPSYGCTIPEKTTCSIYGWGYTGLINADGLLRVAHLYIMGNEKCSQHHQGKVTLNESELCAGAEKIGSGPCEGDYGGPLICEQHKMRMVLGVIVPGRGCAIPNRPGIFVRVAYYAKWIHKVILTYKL

Take `O=C(O)CCCCC1CCSSS1` (centres unmarked) [lipoic acid trisulfide]: in series [1] (increasing molar ratio of lipoic acid trisulfide, HGF:ONOO 1:4000, otherwise as Example 1, FIG. 2), the “reaction intensity with the anti-nitrotyrosine antibody (nitration of tyrosine residues in HGF)” value was “decreased with an increase in the molar ratio of lipoic acid trisulfide added”. In addition, the “inhibit nitration of tyrosine residues in HGF” value in series [1] is “in a concentration-dependent manner”.

Regarding `N[C@@H](CCC(=O)N[C@@H](CSSSC[C@H](NC(=O)CC[C@H](N)C(=O)O)C(=O)NCC(=O)O)C(=O)NCC(=O)O)C(=O)O` [GSSSG, glutathione trisulfide], the “reaction intensity with the anti-nitrotyrosine antibody (nitration of tyrosine residues in HGF)” value in series [1] (molar ratio HGF:GSSSG 1:0, 1:10, 1:50, 1:400, HGF:ONOO- 1:500, pH 7.2 to 7.4, 25 to 37° C., 30 minutes, FIG. 1) was “decreased with an increase in the molar ratio of GSSSG added”. Moreover, in series [1], the “inhibit nitration of tyrosine residues in HGF” value was “in a concentration-dependent manner”. With `O=C(O)CCCC[C@@H]1CCSSS1` [Lipoic acid trisulfide R body, (R)-lipoic acid trisulfide], the “Lipoic acid trisulfide Solubility” value in series [2] is 300 µg/mL.
